Laboratory results: patent US6087377A (priority 1999, dated 2000)
“Also recorded” adds a separate entry of the source. Where a name gives a salt, the structure may show the parent alone. Read-outs that look alike come from different tables or passages of the source.

Experiments:
[1] = tested on: beta-glucuronidase; conditions: cited from earlier work
[2] = tested on: HT-29 cells; assay: Flow cytometric cell cycle arrest and apoptosis in HT-29 cells; type: cell-based, human
[3] = tested on: p21; assay: p21 detection in HT-29 cells; type: cell-based, human
[4] = tested on: p21; assay: p21 level in WI-38 fibroblasts; type: cell-based, human; conditions: WI-38, following p53 and PCNA increase
[5] = tested on: WI-38 normal human diploid lung fibroblasts; assay: Growth inhibition of WI-38 normal human diploid lung fibroblasts; type: cell-based; conditions: WI-38 fibroblasts
[6] = tested on: PCNA; assay: PCNA level in HT-29 cells; type: cell-based, human
[7] = tested on: HT-29 cells; assay: Growth inhibition of human colon adenocarcinoma HT-29 cells; type: cell-based
[8] = tested on: p53; assay: Western immunoblot: p53 level in HT-29 cells; type: cell-based, human; conditions: HT-29, mutant (inactive) p53, Western immunoblot
[9] = tested on: p53; assay: p53 level in WI-38 fibroblasts; type: cell-based, human; conditions: WI-38, IC90 of SN-38 (40 nM)
[10] = tested on: WI-38 normal human diploid lung fibroblasts; conditions: normal WI-38 human fibroblasts; cited from earlier work
[11] = tested on: PCNA; assay: PCNA level in WI-38 fibroblasts; type: cell-based, human; conditions: WI-38, IC90 of SN-38 (40 nM)
[12] = tested on: WI-38 normal human diploid lung fibroblasts; assay: Flow cytometry cell cycle arrest, apoptosis and recovery in WI-38 fibroblasts; type: cell-based
[13] = tested on: HT-29 cells; conditions: HT-29 human adenocarcinoma cells; Bacon et al. 1996 abstract; cited from earlier work
[14] = tested on: cells; conditions: droloxifene, Hasmann et al. 1994; cited from earlier work
[15] = tested on: intestinal epithelium; conditions: hamster, in vivo
[16] = tested on: intestinal epithelium; assay: Irinotecan toxicity in the Syrian hamster: intestinal epithelium, diarrhea, weight loss
[17] = tested on: cancer patients; conditions: cited from earlier work
[18] = tested on: proliferating cell nuclear antigen (PCNA); conditions: hamster, in vivo
[19] = tested on: proliferating cell nuclear antigen (PCNA); assay: Western immunoblot and immunohistochemistry for PCNA in irinotecan-treated hamster intestinal epithelium; conditions: Western immunoblot
[20] = tested on: humans; conditions: loperamide, aggressive high-dose co-therapy, 2 hr intervals at onset of diarrhea; cited from earlier work
[21] = tested on: WI-38 cells; assay: Effect of tamoxifen on replication of SN-38-treated normal WI-38 cells; type: cell-based, human; conditions: WI-38 (non-tumor) pretreated with tamoxifen prior to and during SN-38 exposure
[22] = tested on: hamsters; assay: Tamoxifen pre- and co-treatment of CPT-11-treated hamsters: weight loss and survival; type: in vivo, hamster
[23] = tested on: MCF-7 breast cancer cells; conditions: tamoxifen, Otto et al. 1996, cited from earlier work
[24] = tested on: cyclin D1/cdk4; conditions: thought to be the mechanism; Watts et al. 1995; cited from earlier work
[25] = tested on: hamster colon; assay: Tamoxifen pre- and co-treatment of CPT-11-treated hamsters: colon morphology and function; type: in vivo; conditions: tamoxifen pre- and co-treatment with CPT-11

Question: Which “inhibition of beta-glucuronidase (presumed anti-diarrheal mechanism)” value [1] does the source give for O=C(O)[C@H]1O[C@@H](Oc2cc3oc(-c4ccccc4)cc(=O)c3c(O)c2O)[C@H](O)[C@@H](O)[C@@H]1O [Baicalin, baicalin] here?
Answer: has similar activity

Question: For CCc1c2c(nc3ccc(O)cc13)-c1cc3c(c(=O)n1C2)COC(=O)[C@]3(O)CC [SN-38], which “apoptosis / recovery from arrest” value ([2]; HT-29, after arrest) is on record?
Answer: cells did not recover but instead underwent programmed cell death (apoptosis)

Question: And the “cell cycle arrest (flow cytometry)” value ([2]; HT-29, growth-arrested cells)?
Answer: replication was blocked in the G2 phase of the cell cycle

Question: And the p21 [3]?
Answer: p21 is not upregulated; we have been unable to detect p21

Question: What about the p21 [4] of the same compound?
Answer: followed by increases in p21

Question: And the IC90 [5]?
Answer: 40 nM

Question: And the PCNA levels [6]?
Answer: increased

Question: What about the IC90 [7] of the same compound?
Answer: 10 nM

Question: And the inhibition at 0.01 µM ([7]; SN-38 10 nM)?
Answer: > 90%

Question: What about the “levels of p53” value [8] of the same compound?
Answer: upregulated

Question: And the “levels of p53 (wild type)” value [9]?
Answer: increased

Question: What about the cell cycle arrest [10] of the same compound?
Answer: arrested in S/G2

Question: And the PCNA levels [11]?
Answer: increased along with PCNA

Question: And the apoptosis ([12]; WI-38, IC90 of SN-38 (40 nM))?
Answer: did not undergo apoptosis

Question: And the “cell cycle arrest (flow cytometry)” value ([12]; WI-38, IC90 of SN-38 (40 nM))?
Answer: arrested in the S phase of the cell cycle

Question: What about the “re-entry into the cell cycle” value ([12]; WI-38, when drug was removed) of the same compound?
Answer: slowly re-entered the cell cycle when drug was removed

Question: And the “cell cycle arrest and apoptosis” value [13]?
Answer: arrest in G2 /M followed by apoptosis

Question: With CC/C(=C(/c1ccc(OCCN(C)C)cc1)c1cccc(O)c1)c1ccccc1 [droloxifene] as the compound, how does the cell cycle block [14] read?
Answer: block cells in the G1 phase of the cell cycle in a manner similar to tamoxifen

Question: Which colon epithelium histology [15] does the source give for CCc1c2c(nc3ccc(OC(=O)N4CCC(N5CCCCC5)CC4)cc13)-c1cc3c(c(=O)n1C2)COC(=O)[C@]3(O)CC [irinotecan, irinotecan hydrochloride] here?
Answer: thinned and vacuolated

Question: What about the “crypt cell replication (bromodeoxyuridine labelling)” value [15] of the same compound?
Answer: reduction in crypt cell replication

Question: What about the “diarrhea and weight loss” value [15] of the same compound?
Answer: coincident with diarrhea and weight loss

Question: What about the “structural integrity of the mucosal epithelium” value [15] of the same compound?
Answer: time-dependent loss of structural integrity of the mucosal epithelium in the jejunum and ileum; villi appeared corrugated and epithelial cells lost their typical columnar morphology

Question: What about the “water and electrolyte loss” value [15] of the same compound?
Answer: increased water and electrolyte loss

Question: And the “toxicity to the intestinal epithelium” value ([16]; coincident with onset of delayed diarrhea)?
Answer: considerable toxicity to the intestinal epithelium

Question: What about the “crypts / epithelial cells” value ([16]; histology) of the same compound?
Answer: apparent reduction of crypts and/or a loss of epithelial cells

Question: And the major dose-limiting toxicity ([17]; cancer patients)?
Answer: severe delayed chronic grade 3-4 diarrhea

Question: What about the “intestinal toxicity (diarrhea)” value ([17]; humans, CAMPTOSAR Injection) of the same compound?
Answer: potentially life-threatening intestinal toxicity (diarrhea)

Question: And the antitumor activity ([17]; variety of tumor types)?
Answer: activity against a variety of tumor types, and in particular refractory colorectal tumors

Question: And the “PCNA elevation (Western immunoblot)” value [18]?
Answer: time-dependent elevation in proliferating cell nuclear antigen (PCNA)

Question: And the PCNA immunohistochemistry [18]?
Answer: increase in the number of labelled epithelial cells and labelling intensity in treated animals, with labelled cells positionally located farther towards the villus tip compared to controls

Question: What about the “time of detection of PCNA elevation” value [19] of the same compound?
Answer: 1 days

Question: Which control of diarrhea [20] does the source give for CN(C)C(=O)C(CCN1CCC(O)(c2ccc(Cl)cc2)CC1)(c1ccccc1)c1ccccc1 [loperamide] here?
Answer: successful in most cases

Question: For CC/C(=C(\c1ccccc1)c1ccc(OCCN(C)C)cc1)c1ccccc1 [tamoxifen], which “recovery of replication after SN-38” value [21] is on record?
Answer: regained replication kinetics to a greater extent; also recorded: enhances the recovery of a non-tumor cell line from SN-38-induced inhibition

Question: What about the “weight loss associated with CPT-11 administration” value ([22]; tamoxifen pre- and co-treatment) of the same compound?
Answer: reduced; also recorded: reduces weight loss attributable to diarrhea

Question: What about the survival ([22]; tamoxifen pre- and co-treatment with CPT-11) of the same compound?
Answer: survival increased

Question: What about the cell cycle block [23] of the same compound?
Answer: blocks cell cycle progression in G0 /G1

Question: What about the cell cycle block ([23]; listed as Tamoxifen) of the same compound?
Answer: block in the G0 /G1 phase of the cell cycle

Question: What about the “repression of G1-specific protein kinase activity” value [24] of the same compound?
Answer: repression of G1 -specific protein kinase activity

Question: What about the “morphology and function of the colon” value [25] of the same compound?
Answer: improvement in morphology and function of the hamster colon; also recorded: reduces the colonic pathology and physiological effects
